Where a chain is given by its changes, count along the chain named. Like-named read-outs stand apart in the source and are kept apart here.
What was measured:
[1] = target: T1, CpomOrco+OR3 (Cydia pomonella, UniProt H9A5M3); experiment: Calcium imaging of HEK293T cells co-expressing CpomOrco and CpomOR3, pear ester stimulation; format: cell-based
T1 sequence (H9A5M3 1-426): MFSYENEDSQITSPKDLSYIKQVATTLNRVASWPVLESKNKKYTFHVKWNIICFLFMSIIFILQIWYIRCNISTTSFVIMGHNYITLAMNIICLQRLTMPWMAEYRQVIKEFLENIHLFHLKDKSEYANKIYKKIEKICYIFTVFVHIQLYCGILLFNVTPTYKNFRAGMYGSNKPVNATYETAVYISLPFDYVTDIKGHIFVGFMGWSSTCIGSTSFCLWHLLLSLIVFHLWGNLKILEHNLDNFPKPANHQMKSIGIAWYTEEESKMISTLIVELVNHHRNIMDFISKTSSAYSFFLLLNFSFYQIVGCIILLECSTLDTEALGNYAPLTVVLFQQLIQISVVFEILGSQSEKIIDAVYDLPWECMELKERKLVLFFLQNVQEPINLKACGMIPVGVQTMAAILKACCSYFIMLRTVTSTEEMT
T1 sequence (H9A5M2 1-473 partner): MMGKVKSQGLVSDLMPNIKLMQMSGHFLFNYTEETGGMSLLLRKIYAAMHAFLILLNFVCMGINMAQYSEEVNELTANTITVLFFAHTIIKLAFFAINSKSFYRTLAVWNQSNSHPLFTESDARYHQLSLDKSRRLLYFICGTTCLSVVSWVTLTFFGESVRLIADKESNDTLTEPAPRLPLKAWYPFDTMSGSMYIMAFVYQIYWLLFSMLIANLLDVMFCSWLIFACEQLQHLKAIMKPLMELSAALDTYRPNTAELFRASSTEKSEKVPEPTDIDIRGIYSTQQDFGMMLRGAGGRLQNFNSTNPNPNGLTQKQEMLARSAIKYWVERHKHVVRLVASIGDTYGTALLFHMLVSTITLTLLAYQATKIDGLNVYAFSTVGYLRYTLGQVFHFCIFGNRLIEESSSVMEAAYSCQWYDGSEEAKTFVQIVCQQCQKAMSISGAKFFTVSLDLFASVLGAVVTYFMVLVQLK
Description: (§1) HEK293 cells lines (HEK293A/HEK293T) were grown in HEK cell media [Dulbecco's modified Eagle's medium containing 10% fetal bovine serum (MP Biomedicals, Solon, OH, USA), 2.0 mM L-glutamine, and 100 µg/mL penicillin/streptomycin (Invitrogen)] at 37 °C and 5% CO2. To test transient expression of wild type CpomOrco and CpomOrco^Q417H variant for calcium imaging and patch-clamp recording, 35-mm petri dishes containing semi-confluent HEK293A cells were transiently transfected. Cells were transfected with 0.6 µg of pcDNA40-DEST carrying the coding sequence of the CpomOrco variant (depending on the experiments). To report expression for calcium imaging experiments, 0.6 µg of a separate plasmid DNA [pEBFP2-Nuc, a gift from Robert Campbell (Addgene plasmid # 1489352)] carrying the coding sequence for a blue fluorescent protein (EBFP) was co-transfected. To report expression in patch-clamp recordings, 1.0 µg of a separate plasmid DNA (pXOOM, Clontech, Mountain View, CA, USA) carrying the coding sequence for a green fluorescent protein (GFP) was co-transfected. Expressions of fluorescent reporter genes were under the regulation of the same promoter for Cpom-genes (CMV). For specific experiments, co-transfections were conducted combining an additional 1.2 µg of pcDNA40-DEST/CpomOR3 or pcDNA40-DEST/CpomOR6a, as we previously described. Co-transfections with CpomOR3 were performed for dose–response experiments to pear ester: CpomOR3 was co-expressed with CpomOrco variants by the use of HEK293T (Fig. 3b); given the reported functional co-expression data of the CpomOrco + OR3 heteromers by the use of these specific cells. In brief, transfection DNAs were dissolved in 100 µL sterile DMEM, mixed with 3.0 µL Calfectin (SignaGen, Rockville, MD, USA) following the recommended protocol. Transfections were conducted overnight for up to 18 h, HEK cell media was replaced with 2.0 mL fresh media to incubate cells at 37 °C for up to 6–8 h, at which point part of the cell culture was spread in the middle of a 35-mm plate as individual cells or small clusters and rinsed at the sides with 2.0 mL fresh HEK media. After splitting, cells were allowed to recover for at least 1 day prior to calcium imaging. […]
(§2) Fluorescence imaging was performed using settings optimized for Imaging Workbench 6 software (INDEC BioSystems, Santa Clara, CA, USA)[14]. […] Each cell was assigned a region of interest (ROI) and changes in fluorescence intensity within each ROI were measured and expressed as the fractional change in fluorescence intensity (dF). Stored time series image stacks were analysed off-line using Imaging Workbench 6, Clampfit 10.5 (Molecular Devices) and SigmaPlot 11 (Systat Software Inc., San Jose, CA, USA). […]

[2] = target: T2, CpomOrco^Q417H+OR3 (Cydia pomonella, UniProt H9A5M3); experiment: Calcium imaging of HEK293T cells co-expressing CpomOrco^Q417H and CpomOR3, pear ester stimulation; format: cell-based
T2 construct: variant as stated: Q417H
T2 sequence (H9A5M3 1-426): T1 sequence (H9A5M3 1-426)
T2 sequence (H9A5M2 1-473 Q417H partner): T1 sequence (H9A5M2 1-473 partner) with Q417H
Description: as §1, §2

## CCCCC/C=C\C=C\C(=O)OCC [pear ester, ethyl (E,Z)-2,4 decadienoate]
[1]
  Hill coefficient (cooperativity coefficient h): ~ 4.6
[1]; Hill fit
  EC50: ~210 µM
[1]; N = 160 cells
  maximum response (Hill fit of calcium response amplitudes): ~ 6.6 ± 0.3 ∆F
[1]; listed as Pear ester
  Hill coefficient (cooperativity coefficient h): ~ 4.6 ± 2.4
[2]
  Hill coefficient (cooperativity coefficient h): ~ 4.6
[2]; Hill fit
  EC50: ~733 µM
[2]; N = 262 cells
  maximum response (Hill fit of calcium response amplitudes): ~3.7 ± 0.1 ∆F
[2]; listed as Pear ester
  Hill coefficient (cooperativity coefficient h): ~ 4.6 ± 0.4

From article PMC7887336, “Altered functional properties of the codling moth Orco mutagenized in the intracellular loop-3” (Scientific Reports, 2021)
